Experiments:
Assay type in all cases: cell-based
COLO320DM = assay: Cytotoxicity assay, colorectal cancer cell line panel, onvansertib +/- 1 nM INBRX-109; settings: for EC50: Homo sapiens, COLO 320DM
Protocol: (§1) Monolayer cultures of each cell line were harvested for compound screening as detailed below.
(§2) Also on day 2, test and control articles were added.
(§3) On day 4, viability measurements were taken. […] Data was graphed in GraphPad Prism 9.
(§4) The results for a panel of colorectal cancer cell lines are shown in Table 3 and FIGS. 4-6, and the results for a panel of pancreatic cell lines are shown in Table 4 and FIGS. 7 and 8.

DLD-1 = assay: as above; settings: for Max Cytotox at 600 nM: DLD-1; for EC50: Homo sapiens, DLD-1, DLD-1
Protocol: as §1, §2, §3, §4

HCT 116 = assay: as above; settings: for Max Cytotox at 600 nM: HCT 116; for EC50: Homo sapiens, HCT-116, HCT 116
Protocol: as §1, §2, §3, §4

HCT-15 = assay: as above; settings: for Max Cytotox at 600 nM: HCT-15; for EC50: Homo sapiens, HCT-15, HCT-15
Protocol: as §1, §2, §3, §4

HCT-8 = assay: as above; settings: for Max Cytotox at 600 nM: HCT-8; for EC50: Homo sapiens, HCT-8, HCT-8
Protocol: as §1, §2, §3, §4

HT-29 = assay: as above; settings: for Max Cytotox at 600 nM: HT-29; for EC50: Homo sapiens, HT-29, HT-29
Protocol: as §1, §2, §3, §4

Hutu 80 = assay: as above; settings: for EC50: Homo sapiens, HuTu80, Hutu 80; for Max Cytotox at 600 nM: Hutu 80
Protocol: as §1, §2, §3, §4

LS 1034 = assay: as above; settings: for EC50: Homo sapiens, LS-1034, LS 1034; for Max Cytotox at 600 nM: LS 1034
Protocol: as §1, §2, §3, §4

LS 123 = assay: as above; settings: for EC50: Homo sapiens, LS-123, LS 123; for Max Cytotox at 600 nM: LS 123
Protocol: as §1, §2, §3, §4

LS 180 = assay: as above; settings: for EC50: Homo sapiens, LS180, LS 180; for Max Cytotox at 600 nM: LS 180
Protocol: as §1, §2, §3, §4

LS 513 = assay: as above; settings: for EC50: Homo sapiens, LS-513, LS 513; for Max Cytotox at 600 nM: LS 513
Protocol: as §1, §2, §3, §4

LoVo = assay: as above; settings: for EC50: Homo sapiens
Protocol: as §1, §2, §3, §4

NCI-H716 = assay: as above; settings: for EC50: Homo sapiens, NCI-H716, NCI-H716; for Max Cytotox at 600 nM: NCI-H716
Protocol: as §1, §2, §3, §4

NCI-H747 = assay: as above; settings: for EC50: Homo sapiens, NCI-H747, NCI-H747; for Max Cytotox at 600 nM: NCI-H747
Protocol: as §1, §2, §3, §4

RKO = assay: as above; settings: for EC50: Homo sapiens
Protocol: as §1, §2, §3, §4

SK-CO-1 = assay: as above; settings: for EC50: Homo sapiens, SK-CO-1, SK-CO-1; for Max Cytotox at 600 nM: SK-CO-1
Protocol: as §1, §2, §3, §4

SNU-81 = assay: as above
Protocol: as §1, §2, §3, §4

SNU-C2A = assay: as above
Protocol: as §1, §2, §3, §4

SNU-C5 = assay: as above
Protocol: as §1, §2, §3, §4

SW-1116 = assay: as above; settings: for EC50: Homo sapiens, SW 1116, SW-1116; for Max Cytotox at 600 nM: SW-1116
Protocol: as §1, §2, §3, §4

SW-1463 = assay: as above; settings: for EC50: Homo sapiens, SW1463, SW-1463; for Max Cytotox at 600 nM: SW-1463
Protocol: as §1, §2, §3, §4

SW-403 = assay: as above; settings: for EC50: Homo sapiens, SW-403, SW-403; for Max Cytotox at 600 nM: SW-403
Protocol: as §1, §2, §3, §4

SW-480 = assay: as above; settings: for EC50: Homo sapiens, SW480, SW-480; for Max Cytotox at 600 nM: SW-480
Protocol: as §1, §2, §3, §4

SW-837 = assay: as above; settings: for EC50: Homo sapiens, SW837, SW-837; for Max Cytotox at 600 nM: SW-837
Protocol: as §1, §2, §3, §4

SW-948 = assay: as above; settings: for EC50: Homo sapiens, SW948, SW-948; for Max Cytotox at 600 nM: SW-948
Protocol: as §1, §2, §3, §4

SW620 = assay: as above; settings: for EC50: Homo sapiens, SW-620, SW620; for Max Cytotox at 600 nM: SW620
Protocol: as §1, §2, §3, §4

T84 = assay: as above; settings: for EC50: Homo sapiens, T84, T84; for Max Cytotox at 600 nM: T84
Protocol: as §1, §2, §3, §4

[1] = tested on: panel of colorectal cancer cell lines and panel of pancreatic cell lines; assay: Cytotoxicity screen onvansertib +/- 1 nM INBRX-109, summary over the additional panels; settings: combination of INBRX-109 and onvansertib
Description: as §4

## CN1CCN(c2ccc(OC(F)(F)F)c(Nc3ncc4c(n3)-c3c(c(C(N)=O)nn3CCO)CC4)c2)CC1 [Onvansertib]
COLO320DM; onvansertib + 1 nM INBRX-109
  EC50: 0.283 µM
  Max Cytotox at 600 nM: 79.6%
COLO320DM; onvansertib only
  EC50: 0.383 µM
  Max Cytotox at 600 nM: 58.3%
DLD-1; onvansertib + 1 nM INBRX-109
  Max Cytotox at 600 nM: 90.4%
  EC50: 0.184 µM
DLD-1; onvansertib only
  Max Cytotox at 600 nM: 45.8%
  EC50: 0.28 µM
HCT 116; onvansertib + 1 nM INBRX-109
  Max Cytotox at 600 nM: 96.6%
  EC50: 0.0668 µM
HCT 116; onvansertib only
  Max Cytotox at 600 nM: 76.0%
  EC50: 0.112 µM
HCT-15; onvansertib + 1 nM INBRX-109
  Max Cytotox at 600 nM: 94.9%
  EC50: 0.175 µM
HCT-15; onvansertib only
  Max Cytotox at 600 nM: 61.4%
  EC50: 0.268 µM
HCT-8; onvansertib + 1 nM INBRX-109
  Max Cytotox at 600 nM: 81.3%
  EC50: 0.2 µM
HCT-8; onvansertib only
  Max Cytotox at 600 nM: 52.7%
  EC50: 0.205 µM
HT-29; onvansertib + 1 nM INBRX-109
  Max Cytotox at 600 nM: 98.3%
  EC50: 0.043 µM
HT-29; onvansertib only
  Max Cytotox at 600 nM: 45.6%
  EC50: 0.0616 µM
Hutu 80; onvansertib + 1 nM INBRX-109
  EC50: 0.133 µM
  Max Cytotox at 600 nM: 86.5%
Hutu 80; onvansertib only
  EC50: 0.138 µM
  Max Cytotox at 600 nM: 85.4%
LS 1034; onvansertib + 1 nM INBRX-109
  EC50: 0.199 µM
  Max Cytotox at 600 nM: 85.8%
LS 1034; onvansertib only
  EC50: 0.237 µM
  Max Cytotox at 600 nM: 38.8%
LS 123; onvansertib + 1 nM INBRX-109
  EC50: 0.172 µM
  Max Cytotox at 600 nM: 24.1%
LS 123; onvansertib only
  EC50: 0.15 µM
  Max Cytotox at 600 nM: 9.6%
LS 180; onvansertib + 1 nM INBRX-109
  EC50: 0.197 µM
  Max Cytotox at 600 nM: 86.2%
LS 180; onvansertib only
  EC50: 0.505 µM
  Max Cytotox at 600 nM: 42.9%
LS 513; onvansertib + 1 nM INBRX-109
  EC50: 0.101 µM
  Max Cytotox at 600 nM: 93.7%
LS 513; onvansertib only
  EC50: 0.215 µM
  Max Cytotox at 600 nM: 39.6%
LoVo; onvansertib + 1 nM INBRX-109
  EC50: 0.0418 µM
  Max Cytotox at 600 nM: 90.8%
LoVo; onvansertib only
  EC50: 0.0341 µM
  Max Cytotox at 600 nM: 29.6%
NCI-H716; onvansertib + 1 nM INBRX-109
  EC50: 0.0836 µM
  Max Cytotox at 600 nM: 51.2%
NCI-H716; onvansertib only
  EC50: 0.0813 µM
  Max Cytotox at 600 nM: 34.8%
NCI-H747; onvansertib + 1 nM INBRX-109
  EC50: 0.0787 µM
  Max Cytotox at 600 nM: 44.5%
NCI-H747; onvansertib only
  EC50: 0.0716 µM
  Max Cytotox at 600 nM: 17.4%
RKO; onvansertib + 1 nM INBRX-109
  EC50: 0.0547 µM
  Max Cytotox at 600 nM: 93.8%
RKO; onvansertib only
  EC50: 0.0859 µM
  Max Cytotox at 600 nM: 65.7%
SK-CO-1; onvansertib + 1 nM INBRX-109
  EC50: 0.111 µM
  Max Cytotox at 600 nM: 94.2%
SK-CO-1; onvansertib only
  EC50: 0.113 µM
  Max Cytotox at 600 nM: 52.8%
SNU-81; onvansertib + 1 nM INBRX-109
  EC50: 0.0719 µM
  Max Cytotox at 600 nM: 92.3%
SNU-81; onvansertib only
  EC50: 0.187 µM
  Max Cytotox at 600 nM: 24.3%
SNU-C2A; onvansertib + 1 nM INBRX-109
  EC50: 0.0429 µM
  Max Cytotox at 600 nM: 78.0%
SNU-C2A; onvansertib only
  EC50: 0.0727 µM
  Max Cytotox at 600 nM: 42.9%
SNU-C5; onvansertib + 1 nM INBRX-109
  EC50: 0.0577 µM
  Max Cytotox at 600 nM: 87.7%
SNU-C5; onvansertib only
  EC50: 0.0956 µM
  Max Cytotox at 600 nM: 42.9%
SW-1116; onvansertib + 1 nM INBRX-109
  EC50: 0.411 µM
  Max Cytotox at 600 nM: 39.4%
SW-1116; onvansertib only
  EC50: 0.441 µM
  Max Cytotox at 600 nM: 10.4%
SW-1463; onvansertib + 1 nM INBRX-109
  EC50: 0.098 µM
  Max Cytotox at 600 nM: 64.2%
SW-1463; onvansertib only
  EC50: 0.201 µM
  Max Cytotox at 600 nM: 21.0%
SW-403; onvansertib + 1 nM INBRX-109
  EC50: 0.0649 µM
  Max Cytotox at 600 nM: 89.0%
SW-403; onvansertib only
  EC50: 0.0625 µM
  Max Cytotox at 600 nM: 46.4%
SW-480; onvansertib + 1 nM INBRX-109
  EC50: 0.0933 µM
  Max Cytotox at 600 nM: 86.3%
SW-480; onvansertib only
  EC50: 0.126 µM
  Max Cytotox at 600 nM: 40.7%
SW-837; onvansertib + 1 nM INBRX-109
  EC50: 0.183 µM
  Max Cytotox at 600 nM: 73.5%
SW-837; onvansertib only
  EC50: 0.227 µM
  Max Cytotox at 600 nM: 24.5%
SW-948; onvansertib + 1 nM INBRX-109
  EC50: 0.0233 µM
  Max Cytotox at 600 nM: 99.0%
SW-948; onvansertib only
  EC50: 0.097 µM
  Max Cytotox at 600 nM: 43.2%
SW620; onvansertib + 1 nM INBRX-109
  EC50: 0.0546 µM
  Max Cytotox at 600 nM: 90.4%
SW620; onvansertib only
  EC50: 0.0621 µM
  Max Cytotox at 600 nM: 61.8%
T84; onvansertib + 1 nM INBRX-109
  EC50: 0.297 µM
  Max Cytotox at 600 nM: 62.9%
T84; onvansertib only
  EC50: 0.355 µM
  Max Cytotox at 600 nM: 32.1%
[1]
  cell killing by the combination compared to either agent alone: increased cell killing
